Measured values from patent publication US9474758B2, “Thienopyrimidinedione derivatives as TRPA1 modulators” (Glenmark Pharmaceuticals S.A., priority 2009, dated 2016).
Where two headings read alike, the source gives them in different places.

Experiments:
[1] = target: T1, Human TRPA1 expressing CHO cells (Homo sapiens, UniProt O75762); experiment: 45Calcium uptake assay, inhibition of AITC induced calcium uptake (human); format: cell-based; conditions: for inhibition at 1 µM: read-out: Percentage inhibition at 1.0 μM; for inhibition at 10 µM: read-out: Percentage inhibition at 10.0 μM
T1 construct: expressed in transfected cells; host or cells: CHO cells (G-418 selection)
Protocol: (§1) Screening for TRPA1 Antagonist Using the ^45Calcium Uptake Assay:
(§2) The inhibition of TRPA1 receptor activation was measured as inhibition of allyl isothiocyanate (AITC) induced cellular uptake of radioactive calcium.
(§3) Test compounds were dissolved in 100% DMSO to prepare 10 mM stock and then diluted using plain medium with 0.1% BSA and 1.8 mM CaCl2 to get the desired concentration. The final concentration of DMSO in the reaction was 0.5% (v/v). […] Rat TRPA1 expressing CHO cells were grown in F-12 DMEM medium with 10% FBS, 1% penicillin-streptomycin solution, and 400 μg/ml of Zeocin. […] Cells were treated with the test compounds for 10 minutes followed by the addition of AITC at a final concentration of 30 μM (for human TRPA1) and/or 10 μM (for rat TRPA1) and 5 μCi/ml ^45Ca^+2 for 3 minutes. Cells were washed and lysed using a buffer containing 1% Triton X-100, 0.1% deoxycholate and 0.1% SDS. Radioactivity in the lysate was measured in a Packard TopCount after addition of liquid scintillant.
(§4) Concentration response curves were plotted as a % of maximal response obtained in the absence of test antagonist. IC50 values can be calculated from concentration response curve by nonlinear regression analysis using GraphPad PRISM software.

[2] = target: T2, Rat TRPA1 expressing CHO cells (Rattus norvegicus, UniProt Q6RI86); experiment: 45Calcium uptake assay, inhibition of AITC induced calcium uptake (rat); format: cell-based; conditions: for inhibition at 1 µM: read-out: Percentage inhibition at 1.0 μM; for inhibition at 10 µM: read-out: Percentage inhibition at 10.0 μM; for IC50: read-out: Rat IC50 value (Range)
T2 construct: expressed in transfected cells; host or cells: CHO cells (Zeocin selection)
Protocol: as §1, §2, §3, §4

[3] = human TRPA1 CHO cells, AITC 30 μM, compound 1.0 μM
[4] = human TRPA1 CHO cells, AITC 30 μM, compound 10.0 μM
[5] = rat TRPA1 CHO cells, AITC 10 μM, compound 1.0 μM
[6] = rat TRPA1 CHO cells, AITC 10 μM, compound 10.0 μM
[7] = human TRPA1 CHO cells, AITC 30 μM, read-out: Human IC50 value (Range)
[8] = rat TRPA1 CHO cells, AITC 10 μM

T1 sequence (O75762 whole entry): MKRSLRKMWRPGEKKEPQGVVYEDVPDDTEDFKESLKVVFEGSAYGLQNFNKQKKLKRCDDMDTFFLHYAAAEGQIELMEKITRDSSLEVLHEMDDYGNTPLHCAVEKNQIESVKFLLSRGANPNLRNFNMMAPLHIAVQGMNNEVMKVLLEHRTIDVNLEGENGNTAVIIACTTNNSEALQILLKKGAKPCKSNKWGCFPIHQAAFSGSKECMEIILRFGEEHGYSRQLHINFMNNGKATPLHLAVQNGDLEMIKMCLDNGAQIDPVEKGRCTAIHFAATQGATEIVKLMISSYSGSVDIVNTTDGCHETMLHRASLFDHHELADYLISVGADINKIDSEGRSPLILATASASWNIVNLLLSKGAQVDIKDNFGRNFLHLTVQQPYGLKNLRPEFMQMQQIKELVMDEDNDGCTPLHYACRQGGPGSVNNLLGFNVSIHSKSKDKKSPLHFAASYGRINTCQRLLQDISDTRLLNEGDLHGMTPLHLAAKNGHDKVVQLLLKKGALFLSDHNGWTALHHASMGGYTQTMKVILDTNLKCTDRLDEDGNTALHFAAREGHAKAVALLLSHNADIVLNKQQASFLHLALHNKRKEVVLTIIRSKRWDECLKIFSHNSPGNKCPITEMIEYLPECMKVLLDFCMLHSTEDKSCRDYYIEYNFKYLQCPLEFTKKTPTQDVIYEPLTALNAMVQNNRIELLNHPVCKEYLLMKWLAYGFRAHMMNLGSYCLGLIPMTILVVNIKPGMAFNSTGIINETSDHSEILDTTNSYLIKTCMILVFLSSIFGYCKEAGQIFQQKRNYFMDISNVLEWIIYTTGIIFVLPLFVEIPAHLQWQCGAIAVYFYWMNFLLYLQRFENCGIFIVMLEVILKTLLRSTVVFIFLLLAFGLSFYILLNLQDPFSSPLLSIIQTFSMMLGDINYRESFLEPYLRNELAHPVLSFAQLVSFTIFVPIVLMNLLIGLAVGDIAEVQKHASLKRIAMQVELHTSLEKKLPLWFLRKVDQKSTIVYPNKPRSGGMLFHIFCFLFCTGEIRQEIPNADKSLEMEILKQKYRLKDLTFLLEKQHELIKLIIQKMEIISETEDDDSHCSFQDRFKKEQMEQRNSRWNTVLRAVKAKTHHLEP
T2 sequence (Q6RI86 whole entry): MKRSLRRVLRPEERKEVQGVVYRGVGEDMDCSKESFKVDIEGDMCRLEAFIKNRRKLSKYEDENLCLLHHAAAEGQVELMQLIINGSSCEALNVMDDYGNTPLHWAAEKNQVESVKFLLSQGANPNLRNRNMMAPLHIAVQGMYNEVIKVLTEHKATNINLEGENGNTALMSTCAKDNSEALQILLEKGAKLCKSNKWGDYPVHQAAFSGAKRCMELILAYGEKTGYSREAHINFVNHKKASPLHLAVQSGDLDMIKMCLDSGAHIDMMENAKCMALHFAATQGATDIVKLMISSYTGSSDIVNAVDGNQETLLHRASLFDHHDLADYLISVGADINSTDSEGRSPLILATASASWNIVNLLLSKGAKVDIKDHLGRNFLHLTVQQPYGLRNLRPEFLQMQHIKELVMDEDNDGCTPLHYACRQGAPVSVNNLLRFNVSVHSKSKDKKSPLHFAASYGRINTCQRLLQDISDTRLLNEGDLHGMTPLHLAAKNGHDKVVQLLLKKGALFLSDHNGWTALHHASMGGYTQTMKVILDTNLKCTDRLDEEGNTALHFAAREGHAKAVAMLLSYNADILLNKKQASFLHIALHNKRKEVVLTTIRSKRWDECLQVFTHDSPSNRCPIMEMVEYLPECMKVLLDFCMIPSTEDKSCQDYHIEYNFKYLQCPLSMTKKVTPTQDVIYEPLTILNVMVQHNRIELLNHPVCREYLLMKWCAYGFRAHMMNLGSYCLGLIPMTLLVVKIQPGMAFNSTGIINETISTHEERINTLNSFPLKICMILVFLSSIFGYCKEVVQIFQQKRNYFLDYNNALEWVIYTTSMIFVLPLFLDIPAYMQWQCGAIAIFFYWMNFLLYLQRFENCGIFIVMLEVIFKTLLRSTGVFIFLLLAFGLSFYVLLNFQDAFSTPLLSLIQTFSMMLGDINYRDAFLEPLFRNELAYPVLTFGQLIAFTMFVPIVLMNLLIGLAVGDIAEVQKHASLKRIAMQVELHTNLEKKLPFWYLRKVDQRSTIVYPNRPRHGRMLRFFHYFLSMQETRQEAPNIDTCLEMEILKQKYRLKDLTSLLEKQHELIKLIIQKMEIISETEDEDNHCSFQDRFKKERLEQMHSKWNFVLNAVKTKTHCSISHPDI

| inhibition at 1 µM [1, 3] [%] | inhibition at 10 µM [1, 4] [%] | inhibition at 1 µM [2, 5] [%] | inhibition at 10 µM [2, 6] [%] | IC50 [1, 7] [nM] | IC50 [2, 8] [nM] | Structure (SMILES) | inhibition at 1 µM ([2]; CHO) [%] | inhibition at 10 µM ([2]; CHO) [%] | IC50 [1] [nM] | inhibition at 1 µM ([1]; CHO) [%] | inhibition at 10 µM ([1]; CHO) [%] |
| --- | --- | --- | --- | --- | --- | --- | --- | --- | --- | --- | --- |
| 13.2 | 46 | – | – | – | – | Cn1c(=O)c2c(CC(=O)Nc3nc(C(F)(F)F)cs3)csc2n(C)c1=O [Example 1, 2-(1,3-Dimethyl-2,4-dioxo-1,2,3,4-tetrahydrothieno[2,3-d]pyrimidin-5-yl)-N-[4-(trifluoromethyl)-1,3-thiazol-2-yl]acetamide] | – | – | – | – | – |
| 99 | 98.8 | 91.4 | 99.3 | 50 to 500 | – | Cn1c(=O)c2c(CC(=O)Nc3nc(-c4ccc(Cl)cc4)cs3)csc2n(C)c1=O [Example 2, N-[4-(4-Chlorophenyl)-1,3-thiazol-2-yl]-2-(1,3-dimethyl-2,4-dioxo-1,2,3,4-tetrahydrothieno[2,3-d]pyrimidin-5-yl)acetamide] | – | – | – | – | – |
| 89 | 98.5 | 82.4 | 99.7 | 50 to 500 | – | Cn1c(=O)c2c(CC(=O)Nc3nc(-c4cccc(OC(F)(F)F)c4)cs3)csc2n(C)c1=O [Example 3, 2-(1,3-Dimethyl-2,4-dioxo-1,2,3,4-tetrahydrothieno[2,3-d]pyrimidin-5-yl)-N-{4-[3-(trifluoromethoxy)phenyl]-1,3-thiazol-2-yl}acetamide] | – | – | – | – | – |
| 29.1 | 99.5 | – | – | – | – | CC(C)Cc1ccc(-c2csc(NC(=O)Cc3csc4c3c(=O)n(C)c(=O)n4C)n2)cc1 [Example 4, 2-(1,3-Dimethyl-2,4-dioxo-1,2,3,4-tetrahydrothieno[2,3-d]pyrimidin-5-yl)-N-[4-(4-isobutylphenyl)-1,3-thiazol-2-yl]acetamide] | – | – | – | – | – |
| 95.3 | 99.9 | – | – | < 50 | < 50 | Cn1c(=O)c2c(CC(=O)Nc3nc(-c4ccc(C(F)(F)F)c(F)c4)cs3)csc2n(C)c1=O [Example 5, 2-(1,3-Dimethyl-2,4-dioxo-1,2,3,4-tetrahydrothieno[2,3-d]pyrimidin-5-yl)-N-{4-[3-fluoro-4-(trifluoromethyl)phenyl]-1,3-thiazol-2-yl}acetamide] | – | – | – | – | – |
| 100 | 100 | 99.7 | 99.9 | < 50 | 50 to 500 | Cn1c(=O)c2c(CC(=O)Nc3nc(-c4ccc(F)c(C(F)(F)F)c4)cs3)csc2n(C)c1=O [Example 6, 2-(1,3-Dimethyl-2,4-dioxo-1,2,3,4-tetrahydrothieno[2,3-d]pyrimidin-5-yl)-N-{4-[4-fluoro-3-(trifluoromethyl)phenyl]-1,3-thiazol-2-yl}acetamide] | – | – | – | – | – |
| – | – | – | – | – | – | Cn1c(=O)c2c(CC(=O)Nc3nc(-c4ccc(C(F)(F)F)cc4F)cs3)csc2n(C)c1=O [Example 7, 2-(1,3-Dimethyl-2,4-dioxo-1,2,3,4-tetrahydrothieno[2,3-d]pyrimidin-5-yl)-N-{4-[2-fluoro-4-(trifluoromethyl)phenyl]-1,3-thiazol-2-yl}acetamide] | 26.6 | 100 | < 50 | 80.4 | 99.8 |
| 89.8 | 99.9 | 95.5 | 100 | < 50 | 50 to 500 | Cn1c(=O)c2c(CC(=O)Nc3nc(-c4cc(F)cc(C(F)(F)F)c4)cs3)csc2n(C)c1=O [Example 8, 2-(1,3-Dimethyl-2,4-dioxo-1,2,3,4-tetrahydrothieno[2,3-d]pyrimidin-5-yl)-N-{4-[3-fluoro-5-(trifluoromethyl)phenyl]-1,3-thiazol-2-yl}acetamide] | – | – | – | – | – |
| 99.2 | 98.4 | 100 | 100 | < 50 | 50 to 500 | Cn1c(=O)c2c(CC(=O)Nc3nc(-c4cccc(C(F)(F)F)c4F)cs3)csc2n(C)c1=O [Example 9, 2-(1,3-Dimethyl-2,4-dioxo-1,2,3,4-tetrahydrothieno[2,3-d]pyrimidin-5-yl)-N-{4-[2-fluoro-3-(trifluoromethyl)phenyl]-1,3-thiazol-2-yl}acetamide] | – | – | – | – | – |
| 98.2 | 99.5 | 96.1 | 100 | < 50 | 50 to 500 | Cn1c(=O)c2c(CC(=O)Nc3nc(-c4ccc(F)c(OC(F)(F)F)c4)cs3)csc2n(C)c1=O [Example 10, 2-(1,3-Dimethyl-2,4-dioxo-1,2,3,4-tetrahydrothieno[2,3-d]pyrimidin-5-yl)-N-{4-[4-fluoro-3-(trifluoromethoxy)phenyl]-1,3-thiazol-2-yl}acetamide] | – | – | – | – | – |
| 98.6 | 97.1 | 98.8 | 99.8 | < 50 | < 50 | Cn1c(=O)c2c(CC(=O)Nc3nc(-c4ccc(OC(F)(F)F)c(F)c4)cs3)csc2n(C)c1=O [Example 11, 2-(1,3-Dimethyl-2,4-dioxo-1,2,3,4-tetrahydrothieno[2,3-d]pyrimidin-5-yl)-N-{4-[3-fluoro-4-(trifluoromethoxy)phenyl]-1,3-thiazol-2-yl}acetamide] | – | – | – | – | – |
| 99.7 | 99.8 | 97.8 | 100 | < 50 | 50 to 500 | Cn1c(=O)c2c(CC(=O)Nc3nc(-c4ccc(Cl)c(Cl)c4)cs3)csc2n(C)c1=O [Example 12, N-[4-(3,4-Dichlorophenyl)-1,3-thiazol-2-yl]-2-(1,3-dimethyl-2,4-dioxo-1,2,3,4-tetrahydrothieno[2,3-d]pyrimidin-5-yl)acetamide] | – | – | – | – | – |
| 60 | 96.8 | – | – | – | – | Cn1c(=O)c2c(CC(=O)Nc3nc(-c4ccc(C(F)(F)F)c(F)c4F)cs3)csc2n(C)c1=O [Example 15, N-{4-[2,3-Difluoro-4-(trifluoromethyl)phenyl]-1,3-thiazol-2-yl}-2-(1,3-dimethyl-2,4-dioxo-1,2,3,4-tetrahydrothieno[2,3-d]pyrimidin-5-yl)acetamide] | – | – | – | – | – |
| 10 | 46.8 | – | – | – | – | Cc1sc2c(c1CC(=O)Nc1nc(-c3cccc(OC(F)(F)F)c3)c[nH]1)c(=O)n(C)c(=O)n2C [Example 28, N-[4-(3-Trifluoromethoxyphenyl)-1H-imidazol-2-yl]-2-(1,3,6-trimethyl-2,4-dioxo-1,2,3,4-tetrahydrothieno[2,3-d]pyrimidin-5-yl)acetamide] | – | – | – | – | – |
| 91.7 | 98 | – | – | 50 to 500 | – | Cc1sc2c(c1CC(=O)Nc1nc(-c3ccc(C(F)(F)F)c(F)c3)c[nH]1)c(=O)n(C)c(=O)n2C [Example 29, N-{4-[3-Fluoro-4-(trifluoromethyl)phenyl]-1H-imidazol-2-yl}-2-(1,3,6-trimethyl-2,4-dioxo-1,2,3,4-tetrahydrothieno[2,3-d]pyrimidin-5-yl)acetamide] | – | – | – | – | – |
| 25 | 87.9 | – | – | – | – | Cn1c(=O)c2c(CC(=O)Nc3cc(-c4ccc(Cl)cc4)no3)csc2n(C)c1=O [Example 38, N-[3-(4-Chlorophenyl)isoxazol-5-yl]-2-(1,3-dimethyl-2,4-dioxo-1,2,3,4-tetrahydrothieno[2,3-d]pyrimidin-5-yl)acetamide] | – | – | – | – | – |
| 47.8 | 78.6 | – | – | – | – | Cn1c(=O)c2c(CC(=O)Nc3cc(-c4ccc(Br)cc4)on3)csc2n(C)c1=O [Example 39, N-[5-(4-Bromophenyl)isoxazol-3-yl]-2-(1,3-dimethyl-2,4-dioxo-1,2,3,4-tetrahydrothieno[2,3-d]pyrimidin-5-yl)acetamide] | – | – | – | – | – |
| 99.9 | 100 | – | – | < 50 | – | Cn1c(=O)c2c(CC(=O)Nc3ccn(-c4ccc(Br)cc4)n3)csc2n(C)c1=O [Example 40, N-[1-(4-Bromophenyl)-1H-pyrazol-3-yl]-2-(1,3-dimethyl-2,4-dioxo-1,2,3,4-tetrahydrothieno[2,3-d]pyrimidin-5-yl)acetamide] | – | – | – | – | – |
| 9.74 | 74.6 | – | – | – | – | Cn1c(=O)c2c(CC(=O)Nc3nnc(-c4ccc(Br)cc4)s3)csc2n(C)c1=O [Example 42, N-[5-(4-Bromophenyl)-1,3,4-thiadiazol-2-yl]-2-(1,3-dimethyl-2,4-dioxo-1,2,3,4-tetrahydrothieno[2,3-d]pyrimidin-5-yl)acetamide] | – | – | – | – | – |
| 30.5 | 4.42 | – | – | – | – | Cn1c(=O)c2c(CC(=O)Nc3nccc(-c4ccc(Br)cc4)n3)csc2n(C)c1=O [Example 43, N-[4-(4-Bromophenyl)pyrimidin-2-yl]-2-(1,3-dimethyl-2,4-dioxo-1,2,3,4-tetrahydrothieno[2,3-d]pyrimidin-5-yl)acetamide] | – | – | – | – | – |
